Test results as given in patent US20150352116A1, “HDAC INHIBITOR AND BTK INHIBITOR COMBINATIONS” (Pharmacyclics LLC, priority 2014, published 2015).

Experiments:
Assay type in all cases: cell-based
[1] = tested on: CLL cells; assay: annexin apoptosis assay on CLL cells
Excerpt: FIG. 5 illustrates an annexin apoptosis assay on CLL cells.
FIG. 9 illustrates an annexin apoptosis assay on CLL cells.
(§1) FIG. 1A illustrates a nanostring miRNA expression data table. […] FIG. 1B illustrates HDAC1 knockdown in CLL cells. FIG. 2A illustrates a human BTK mRNA map. […] FIG. 2C illustrates a miRNA map. HDAC inhibition is associated with the accumulation of activating chromatin modifications (H3K4me3) that promote gene re-expression. FIG. 3A illustrates a miRNA expression data table. FIG. 3B illustrates miRNA expression in the presence or absence of 0.4 μM Abexinostat in unmutated 17p CLL. […] FIG. 5 illustrates an annexin apoptosis assay on CLL cells. […] FIG. 6 illustrates survival after leukemia in a TCL-1 mouse model. […] FIG. 9 illustrates an annexin apoptosis assay on CLL cells. […] FIG. 10 illustrates the expression of phosphorylated BTK Y223 in the presence of Abexinostat in AML cells.

[2] = tested on: CLL cells; assay: sensitivity of CLL cells from extended-lymphocytosis or ibrutinib-resistant samples (FIG. 7); details: samples with extended lymphocytosis or that develop resistance to Ibrutinib
Protocol: as §1

[3] = tested on: Btk-directed miRNA; assay: miRNA expression in unmutated 17p CLL; details: 0.4 μM Abexinostat, unmutated 17p (high risk) CLL, FIG. 3B
Protocol: FIG. 3A illustrates a miRNA expression data table. FIG. 3B illustrates miRNA expression in the presence or absence of 0.4 μM Abexinostat in unmutated 17p CLL.
as §1

CN(C)Cc1c(C(=O)NCCOc2ccc(C(=O)NO)cc2)oc2ccccc12 [Abexinostat, 3-[(Dimethylamino)methyl]-N-{2-[4-(hydroxycarbamoyl)phenoxy]ethyl}-1-benzofuran-2-carboxamide]
killing of CLL cells (annexin apoptosis), combination effect ([1]; Abexinostat in combination with ibrutinib, FIG. 5): synergized with ibrutinib to kill CLL cells | sensitivity of CLL cells to Abexinostat (annexin apoptosis) ([1]; samples with extended lymphocytosis or that develop resistance to Ibrutinib, FIG. 9): retain sensitivity | sensitivity of CLL cells to Abexinostat [2]: retaining sensitivity | effect on miRNA expression [3]: de-repression of Btk-directed miRNA
